The text below walks through data of patent US20250213496A1, “LIPID NANOPARTICLES AND PREPARATION METHODS AND USE THEREOF” (priority 2022, published 2025).

The nature of this series: HPLC quantification of retinoid compound in LNP (encapsulation efficiency). The series is classed as physicochemical. Particulars: HPLC after diluting LNP with ethanol; AM80 275 nm, ATRA 350 nm. Here is the method:
The content of the retinoid compound in the LNP is determined by high performance liquid chromatography (HPLC), including: preparing a gradient dilution standard solution of ATRA or AM80, establishing the HPLC method, sequentially injecting 100 μL of different concentrations of the standard solution, and plotting the standard curve by using the ultraviolet absorption peak areas of different concentrations of ATRA or AM80. The five-component LNP is broken by ethanol with a volume more than 10 times the volume of the LNP, and the volume of each injection is controlled to be 100 μL; the peak area is substituted into the standard curve to obtain the content of ATRA or AM80 in the lipid solution.
Chromatographic conditions: Sunfire C18 column (150 mm×4.6 mm, 5 μm), column temperature (25° C.), mobile phase A (acetonitrile), mobile phase B (0.1 M triethylamine acetate buffer solution with a pH of 7.0), flow rate of 1.0 mL/min, and injection volume of 100 μL each time.
The standard solutions of AM80 with different concentrations were prepared with ethanol, and HPLC injection and gradient elution were performed. […] After diluting LNP with the ethanol, HPLC injection was performed, the AM80 content in the LNP solution was quantified according to the absorption peak area at 275 nm, and an encapsulation efficiency of AM80 is 45%-65%. […]

For `CC1(C)CCC(C)(C)c2cc(NC(=O)c3ccc(C(=O)O)cc3)ccc21` [AM80, tamibarotene], the “encapsulation efficiency of retinoid compound in LNP” value is on record as 45%-65.

In the case of `CC1=C(/C=C/C(C)=C/C=C/C(C)=C/C(=O)O)C(C)(C)CCC1` [ATRA, all-trans-retinoic acid], the “encapsulation efficiency of retinoid compound in LNP” value is listed as 40%-70.
